According to patent US11590116B2 (THERAVANCE BIOPHARMA R&D IP, LLC, priority 2019, dated 2023):

Columns and labels:
[1] = target: T1, recombinant human ALK5 (TGF-βR1) protein (Homo sapiens, UniProt P36897); test: Biochemical ALK5 (TGF-βR1) assay to measure pKi (LANCE Ultra ULight kinase assay); details: apparent pKi from pIC50 by Cheng-Prusoff, read-out: ALK5 pKi (converted)
T1 construct: purchased Life Technologies PR9075A
T1 sequence (P36897 34-503): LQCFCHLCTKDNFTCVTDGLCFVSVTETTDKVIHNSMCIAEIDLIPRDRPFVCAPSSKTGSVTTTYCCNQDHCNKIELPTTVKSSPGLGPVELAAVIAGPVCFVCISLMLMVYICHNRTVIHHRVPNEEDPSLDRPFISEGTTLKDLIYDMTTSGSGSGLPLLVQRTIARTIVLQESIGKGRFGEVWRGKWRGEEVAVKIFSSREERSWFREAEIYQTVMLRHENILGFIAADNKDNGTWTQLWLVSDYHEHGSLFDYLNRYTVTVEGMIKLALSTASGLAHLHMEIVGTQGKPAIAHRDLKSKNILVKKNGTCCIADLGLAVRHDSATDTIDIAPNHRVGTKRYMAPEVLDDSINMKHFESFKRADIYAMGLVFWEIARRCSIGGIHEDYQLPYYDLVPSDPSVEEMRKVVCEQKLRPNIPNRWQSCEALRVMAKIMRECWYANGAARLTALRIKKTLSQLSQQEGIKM
How it was run: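 Compounds (10 μM to 25 pM) preincubated 60 minutes at room temperature with enzyme, then reaction run 60 minutes at 37° C with ATP added as 125 μM (5× final). Stopped with EDTA plus Eu-anti-phospho-Topoisomerase 2-alpha (Thr1342) antibody, TR-FRET read at 665 nm; pIC50 converted to pKi via Cheng-Prusoff.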

[2] = system: TGF-β-stimulated SMAD3 phosphorylation in BEAS-2B cells; test: Cellular ALK5 potency assay, inhibition of TGF-β stimulated pSMAD3 formation in BEAS-2B cells; format: cell-based; details: Homo sapiens; inhibition of TGF-β stimulated pSMAD3 formation, BEAS-2B cells; read-out: BEAS2B pIC50 (converted)
How it was run: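 BEAS-2B human lung epithelial cells pre-treated 1 h at 37° C with compound in HBSS/25 mM HEPES/1% BSA, then stimulated 30 min with 10 ng/mL TGF-β (final). Lysates assayed for pSMAD3 by AlphaLISA; pIC50 from dose-dependent change versus stimulated untreated cells.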

Ki [1] [nM] | Compound | IC50 [2] [nM]
0.0398 to 0.316 | Cc1cccc(-c2nc3ccccn3c2-c2ccc3ncc(-c4cnn5c4CNCC5)cc3n2)n1 [Compound 587, 2-(2-(6-methylpyridin-2-yl)imidazo[1,2-a]pyridin-3-yl)-7-(4,5,6,7-tetrahydropyrazolo[1,5-a]pyrazin-3-yl)-1,5-naphthyridine] | 25.1 to 158
0.0398 to 0.316 | Cc1cccc(-c2n[nH]cc2-c2ccc3ncc(NCCN4C[C@@H](C)N[C@@H](C)C4)cc3n2)n1 [Compound 516, 6-[3-(6-methyl-2-pyridyl)-1H-pyrazol-4-yl]-N-[2-[rac-(3R,5S)-3,5-dimethylpiperazin-1-yl]ethyl]-1,5-naphthyridin-3-amine] | 25.1 to 158
3.98 to 31.6 | Cc1cccc(-c2n[nH]cc2-c2ccc3nccc(CN(C)C)c3n2)n1 [Compound 830, N,N-dimethyl-1-[6-[3-(6-methyl-2-pyridyl)-1H-pyrazol-4-yl]-1,5-naphthyridin-4-yl]methanamine] | 25.1 to 158
< 0.0316 | COC(=O)c1cccc(-c2cnc3ccc(-c4c[nH]nc4-c4cccc(C)n4)nc3c2)c1 [Compound 369, methyl 3-[6-[3-(6-methyl-2-pyridyl)-1H-pyrazol-4-yl]-1,5-naphthyridin-3-yl]benzoate] | < 20
0.398 to 3.16 | Cc1nc(-c2n[nH]cc2-c2ccc3ncc(-c4ncc5n4CCNC5)cc3n2)ccc1F [Compound 39, 2-[3-(5-fluoro-6-methyl-2-pyridyl)-1H-pyrazol-4-yl]-7-(5,6,7,8-tetrahydroimidazo[1,5-a]pyrazin-3-yl)-1,5-naphthyridine] | 200 to 1260
0.398 to 3.16 | Cc1cccc(-c2[nH]ncc2-c2ccc3ncc(C(=O)O[C@@H]4CCN(C)C4)cc3n2)n1 [Compound 421, [(3R)-1-methylpyrrolidin-3-yl] 6-[5-(6-methyl-2-pyridyl)-1H-pyrazol-4-yl]-1,5-naphthyridine-3-carboxylate] | 25.1 to 158
< 0.0316 | Cc1cccc(-c2n[nH]cc2-c2ccc3ncc(-c4ccncc4)cc3n2)n1 [Compound 565, 2-[3-(6-methyl-2-pyridyl)-1H-pyrazol-4-yl]-7-(4-pyridyl)-1,5-naphthyridine] | < 20
0.0398 to 0.316 | Cc1cccc(-c2[nH]cnc2-c2ccc3ncc(N4CCC(C(=O)OC5CNC5)CC4)cc3c2)n1 [Compound 705, azetidin-3-yl 1-[6-[5-(6-methyl-2-pyridyl)-1H-imidazol-4-yl]-3-quinolyl]piperidine-4-carboxylate] | 200 to 1260
0.0398 to 0.316 | Cc1cccc(-c2[nH]cnc2-c2ccc3ncc(-c4ccc(C(=O)O[C@H]5CCNC5)cn4)cc3c2)n1 [Compound 1119, [(3S)-pyrrolidin-3-yl] 6-[6-[5-(6-methyl-2-pyridyl)-1H-imidazol-4-yl]-3-quinolyl]pyridine-3-carboxylate] | 25.1 to 158
0.0398 to 0.316 | Cc1cccc(-c2[nH]cnc2-c2ccc3ncc(N4CC[C@H](N)C4)cc3c2)n1 [Compound 208, (3S)-1-[6-[5-(6-methyl-2-pyridyl)-1H-imidazol-4-yl]-3-quinolyl]pyrrolidin-3-amine] | < 20
0.0398 to 0.316 | Cc1cccc(-c2n[nH]cc2-c2ccc3ncc(-c4cn[nH]c4)c(C4CCCN4)c3c2)n1 (stereo not drawn) [Compound 356] | 200 to 1260
< 0.0316 | Cc1cccc(-c2n[nH]cc2-c2ccc3ncc(-c4ccc(C5CCCN(C)C5)cc4)cc3n2)n1 (stereo not drawn) [Compound 552, 7-[4-(1-methyl-3-piperidyl)phenyl]-2-[3-(6-methyl-2-pyridyl)-1H-pyrazol-4-yl]-1,5-naphthyridine] | 200 to 1260
0.0398 to 0.316 | Cc1cccc(-c2n[nH]cc2-c2ccc3nccc(NC(=O)CN4CCOCC4)c3n2)n1 [Compound 840, N-[6-[3-(6-methyl-2-pyridyl)-1H-pyrazol-4-yl]-1,5-naphthyridin-4-yl]-2-morpholino-acetamide] | 25.1 to 158
< 0.0316 | Cc1cccc(-c2[nH]cnc2-c2ccc3ncc(-c4csc(C(=O)O[C@H]5CC[C@@](C)(N)CC5)c4)cc3c2)n1 [Compound 1232, (4-amino-4-methyl-cyclohexyl) 4-[6-[5-(6-methyl-2-pyridyl)-1H-imidazol-4-yl]-3-quinolyl]thiophene-2-carboxylate] | 25.1 to 158
< 0.0316 | Cc1nc(-c2n[nH]cc2-c2ccc3ncc(-c4cnc5n4CCN5)cc3n2)ccc1F [Compound 332, 7-(6,7-dihydro-5H-imidazo[1,2-a]imidazol-3-yl)-2-[3-(5-fluoro-6-methyl-2-pyridyl)-1H-pyrazol-4-yl]-1,5-naphthyridine] | 25.1 to 158
< 0.0316 | Cc1cccc(-c2n[nH]cc2-c2ccc3ncc(-c4cnn5c4NCC5)cc3n2)n1 [Compound 570, 7-(2,3-dihydro-1H-imidazo[1,2-b]pyrazol-7-yl)-2-[3-(6-methyl-2-pyridyl)-1H-pyrazol-4-yl]-1,5-naphthyridine] | < 20
0.398 to 3.16 | Cc1cccc(-c2[nH]cnc2-c2ccc3ncc(C(=O)OC[C@H]4CCCN4)cc3c2)n1 [Compound 760, [(2R)-pyrrolidin-2-yl]methyl 6-[5-(6-methyl-2-pyridyl)-1H-imidazol-4-yl]quinoline-3-carboxylate] | 25.1 to 158
< 0.0316 | Cc1cc(-c2cnc3ccc(-c4c[nH]nc4-c4cccc(C)n4)nc3c2)ccn1 [Compound 454, 7-(2-methyl-4-pyridyl)-2-[3-(6-methyl-2-pyridyl)-1H-pyrazol-4-yl]-1,5-naphthyridine] | < 20
0.0398 to 0.316 | Cc1cccc(-c2nc3ccccn3c2-c2ccc3ncc(Br)cc3n2)n1 [Compound 657, 7-bromo-2-[2-(6-methyl-2-pyridyl)imidazo[1,2-a]pyridin-3-yl]-1,5-naphthyridine] | 25.1 to 158
3.98 to 31.6 | Cc1cccc(-c2n[nH]cc2-c2ccc3ncc(-c4nnc5n4CCNC5)cc3n2)n1 [Compound 40, 2-[3-(6-methyl-2-pyridyl)-1H-pyrazol-4-yl]-7-(5,6,7,8-tetrahydro-[1,2,4]triazolo[4,3-a]pyrazin-3-yl)-1,5-naphthyridine] | 1580 to 10000
0.0398 to 0.316 | COC(=O)[C@H]1CNCCN1CCNc1cnc2ccc(-c3nc[nH]c3-c3cccc(C)n3)cc2c1 [Compound 723, methyl (2R)-1-[2-[[6-[5-(6-methyl-2-pyridyl)-1H-imidazol-4-yl]-3-quinolyl]amino]ethyl]piperazine-2-carboxylate] | 200 to 1260
0.0398 to 0.316 | COC(=O)CNc1cnc2ccc(-c3nc[nH]c3-c3cccc(C)n3)cc2c1 [Compound 1229, methyl 2-[[6-[5-(6-methyl-2-pyridyl)-1H-imidazol-4-yl]-3-quinolyl]amino]acetate] | 25.1 to 158
3.98 to 31.6 | Cc1cccc(-c2n[nH]cc2-c2ccc3ncc(N[C@@]45C[C@@H]6C[C@@H](C[C@@](N)(C6)C4)C5)cc3n2)n1 [Compound 297, rac-(5S,7R)-N1-[6-[3-(6-methyl-2-pyridyl)-1H-pyrazol-4-yl]-1,5-naphthyridin-3-yl]adamantane-1,3-diamine] | 200 to 1260
0.0398 to 0.316 | Cc1cccc(-c2[nH]cnc2-c2ccc3ncc(NCCN4CCC[C@@H](N)C4)cc3c2)n1 [Compound 730, N-[2-[(3R)-3-amino-1-piperidyl]ethyl]-6-[5-(6-methyl-2-pyridyl)-1H-imidazol-4-yl]quinolin-3-amine] | 25.1 to 158
